Reference: US20080293699A1, “Inhibitors of thapsigargin-induced cell death” (priority 2007, published 2008)

Biological target: T1, ASK1 (Homo sapiens, UniProt Q99683)
T1 construct: expressed in transfected cells; host or cells: HEK293T
T1 sequence (Q99683 1-1374): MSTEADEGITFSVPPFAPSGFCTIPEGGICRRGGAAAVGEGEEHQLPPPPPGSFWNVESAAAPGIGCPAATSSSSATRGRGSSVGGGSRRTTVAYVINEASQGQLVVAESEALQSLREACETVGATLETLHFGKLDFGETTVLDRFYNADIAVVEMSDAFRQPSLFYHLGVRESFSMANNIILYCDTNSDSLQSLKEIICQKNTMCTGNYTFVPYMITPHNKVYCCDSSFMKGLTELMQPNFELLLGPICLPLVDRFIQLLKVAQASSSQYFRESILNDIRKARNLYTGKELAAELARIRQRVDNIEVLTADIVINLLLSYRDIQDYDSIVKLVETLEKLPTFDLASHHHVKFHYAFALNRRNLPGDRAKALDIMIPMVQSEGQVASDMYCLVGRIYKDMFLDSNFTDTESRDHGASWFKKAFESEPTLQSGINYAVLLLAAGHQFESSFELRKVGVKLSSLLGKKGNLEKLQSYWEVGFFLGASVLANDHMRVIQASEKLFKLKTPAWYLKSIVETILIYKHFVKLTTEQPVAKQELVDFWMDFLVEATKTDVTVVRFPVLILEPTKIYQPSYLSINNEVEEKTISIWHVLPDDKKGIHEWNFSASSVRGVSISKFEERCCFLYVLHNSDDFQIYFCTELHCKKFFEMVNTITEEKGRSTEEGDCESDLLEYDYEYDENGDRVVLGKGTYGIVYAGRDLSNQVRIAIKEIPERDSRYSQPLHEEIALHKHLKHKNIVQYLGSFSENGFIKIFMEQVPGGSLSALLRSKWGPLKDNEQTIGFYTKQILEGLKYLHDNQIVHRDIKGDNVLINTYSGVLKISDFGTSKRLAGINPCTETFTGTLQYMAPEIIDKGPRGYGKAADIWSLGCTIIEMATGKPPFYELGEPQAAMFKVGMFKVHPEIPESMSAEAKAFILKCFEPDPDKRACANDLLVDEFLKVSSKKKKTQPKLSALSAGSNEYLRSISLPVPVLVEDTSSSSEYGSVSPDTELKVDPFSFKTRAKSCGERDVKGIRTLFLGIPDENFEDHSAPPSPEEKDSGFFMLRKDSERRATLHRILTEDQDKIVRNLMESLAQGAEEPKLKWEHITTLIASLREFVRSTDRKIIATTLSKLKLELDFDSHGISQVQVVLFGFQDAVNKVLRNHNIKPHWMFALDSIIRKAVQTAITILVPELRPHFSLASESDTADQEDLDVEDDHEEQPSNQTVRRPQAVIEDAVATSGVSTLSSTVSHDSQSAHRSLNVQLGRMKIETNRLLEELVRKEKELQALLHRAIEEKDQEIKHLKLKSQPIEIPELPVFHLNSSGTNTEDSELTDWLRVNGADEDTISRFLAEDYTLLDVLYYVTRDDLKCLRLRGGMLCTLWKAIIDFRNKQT
Experiment: ASK1 autophosphorylation in vitro kinase assay
Assay type: biochemical
Details: up to 50 μM, listed as CID-2878746
Description: Suppression of thapsigargin-induced phosphorylation of p38MAPK was also measured by a quantitative ELISA-methods, with IC50 for p38MAPK phosphorylation estimated at <5 μM. In contrast, thapsigargin-induced expression of CHOP, expression of ATF4, proteolytic processing of ATF6, phosphorylation of eIF2a (Ser 51), auto-phosphorylation of Ire1a or auto-phosphorylation of ASK1 were not inhibited directly by CID-2878746 at concentrations up to 50 μM tested by in vitro kinase assay using p32-γ-ATP substrate. […] Thapsigargin-induced reductions in phosphorylation of ASK1 at the serine 967 site in ASK1 transfected 293T cells are inhibited by compound 5962123 at concentrations of 50-100 μM, as determined by immunoblotting using anti-phospho-specific (ser 967) antibody, but thapsigargin-induced changes in phosphorylation of ASK1 at ser 83 and thr 845 are not modulated by compound 5962123 at concentrations as high as 100 μM in ASK1-transfected HEK293T cells.

## CCN(CC)c1ccc(C2Nc3ccccc3NC3=C2C(=O)CC(c2ccccc2)C3)cc1 (stereo not shown) [Compound 5962123, 6-(4-diethylaminophenyl)-9-phenyl-5,6,8,9,10,11-hexahydrobenzo[c][1,5]benzodiazepin-7-one]
  ASK1 autophosphorylation: not inhibited
